Source: patent US6441175B1, “1-(N'-arylalkylaminoalkyl)aminoisoquinolines: a new class of dopamine receptor subtype” (Neurogen Corporation, priority 1997, dated 2002)
pKi: −log10 of the molar value.

Key:
[1] = biological target: T1, D2 receptors (Chlorocebus aethiops, UniProt P52702); assay: Assay for D2 and D4 receptor binding activity (COS cells, 3H-YM 09151-2), D2; parameters: species or system African Green monkey; details: recombinant D2 in COS cells; 0.5 nM 3H-YM 09151-2
T1 construct: expressed in transfected cells; host or cells: COS cells
Experimental: (§1) Assay For D2 And D4 Receptor Binding Activity
(§2) Pellets of COS cells containing recombinantly produced D2 or D4 receptors from African Green monkey were used for the assays. The sample is homogenized in 100 volumes (w/vol) of 0.05 M Tris HCl buffer at 4° C. and pH 7.4. The sample is then centrifuged at 30,000×g and resuspended and rehomogenized. The sample is then centrifuged as described and the final tissue sample is frozen until use. The tissue is resuspended 1:20 (wt/vol) in 0.05 M Tris HCl buffer containing 100 mM NaCl.
(§3) Incubations are carried out at 48° C. and contain 0.4 ml of tissue sample, 0.5 nM ^3H-YM 09151-2 and the compound of interest in a total incubation of 1.0 ml. Non-specific binding is defined as that binding found in the presence of […] spiperone; without further additions, nonspecific binding is less than 20% of total binding.

[2] = test system: D4 receptors; assay: Assay for D2 and D4 receptor binding activity (COS cells, 3H-YM 09151-2), D4; parameters: species or system African Green monkey; details: recombinant D4 in COS cells; 0.5 nM 3H-YM 09151-2; read-out: D4 K1
Experimental: as §1, §2, §3

T1 sequence (P52702 whole entry): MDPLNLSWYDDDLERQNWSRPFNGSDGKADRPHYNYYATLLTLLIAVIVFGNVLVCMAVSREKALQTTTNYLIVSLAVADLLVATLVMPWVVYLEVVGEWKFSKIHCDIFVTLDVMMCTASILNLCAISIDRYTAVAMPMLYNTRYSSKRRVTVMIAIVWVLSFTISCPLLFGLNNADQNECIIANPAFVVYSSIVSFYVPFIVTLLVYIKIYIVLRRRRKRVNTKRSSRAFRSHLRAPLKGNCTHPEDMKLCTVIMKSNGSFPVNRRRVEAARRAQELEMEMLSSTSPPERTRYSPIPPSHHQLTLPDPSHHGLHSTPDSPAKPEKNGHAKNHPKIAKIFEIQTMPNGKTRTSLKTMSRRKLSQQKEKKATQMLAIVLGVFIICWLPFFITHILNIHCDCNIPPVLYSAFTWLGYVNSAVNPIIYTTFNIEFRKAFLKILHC

Row | pKi [1] | melting point | Molecule | pKi [2]
1 | 5.83 |  | 1-(1-[2-{(4-[5-Fluoropyrimidin-2-yl])piperazin-1-yl}]ethyl)aminoisoquinoline hydrobromide [Compound 9] | 7.89
2 | 6.11 |  | 1-(1-[3-{(4-Pyridin-2-yl)piperazin-1-yl}]propyl)aminoisoquinoline hydrobromide [Compound 10] | 8.70
3 |  | 175 to 177 °C | CN(CCCc1ccccc1)CCNC1=NCc2ccccc21 [Compound 3, 1-(N-[2-{N′-(3-phenylpropyl)-N′-methyl}aminoethyl])aminoisoindole dioxolate] | 
